Results from a melting point compilation (Tetko et al.; mined from patent text by program, amines drawn as free bases though some values may be those of a salt).

Row | SMILES | melting point
1 | C(=C\c1nc(COc2ccc(CCCCn3ccnc3-c3ccccc3)cc2)co1)/c1ccccc1 | 85 to 86 °C
2 | CC=CCN(C)c1ncnc2c1ncn2C1OC(CO)C(O)C1O (configuration not stated) | 160 to 162 °C
3 | CCOC(=O)CN1CCN(CCNc2ncc3ncnc(Nc4ccc(F)c(Cl)c4)c3n2)CC1 | 128 to 129 °C
4 | CCOCCNC(=O)COc1ccn2nc(-c3ccccc3)c(-c3ccc(=O)n(C(C)C)n3)c2c1 | 126 to 128 °C
5 | CC(=O)C1CCC2C3CCC4CC(O)C(F)CC4(C)C3C(=O)CC12C (configuration not stated) | 174 to 178 °C
6 | Cn1c(C(F)(F)F)cc(=O)n(-c2cc(S)c(Cl)cc2F)c1=O | 132 °C
7 | CCCCNC(=O)CC(F)=C(F)F | 34 to 36 °C
8 | CC(=O)Cn1cnc2c1c(=O)n(CC1CC1)c(=O)n2C1CCCC1 | 155 °C
9 | CN1CCC(N(C)c2n[nH]c(-c3ccc(Cl)cc3)c2-c2ccncc2)CC1 | 260 to 261 °C
10 | COc1ccc2c(c1)CCC1=C2CCC2(CC(C)C)C(=O)CC=C12 (configuration not stated) | 57 to 60 °C
11 | CC(C)(C)c1cc(Cl)n2ncnc2n1 | 285 to 286 °C
12 | CCCN=C(Cc1ccccc1)N1CC2C(=O)CCC(c3ccccc3)(c3ccccc3)C2C1 (configuration not stated) | 86 °C
13 | C=C=CS(=O)(=O)c1ncn(C(=O)N(CC)CC)n1 | 98 to 100 °C
14 | CCOC(=O)C(Cl)(Cl)CCCCCCCCCCCCS(=O)(=O)c1ccccc1 | 69 to 71 °C
15 | CCCc1c(O)ccc2c(=O)cc(-c3ccc(C(=O)OCC)cc3)oc12 | 225 to 226 °C
16 | COc1ccc(Cl)c(C)c1OC | 69 to 70 °C
17 | COc1cc2c(cc1C)C1(CO2)C(=O)N(CC2CCCCO2)c2ccccc21 (configuration not stated) | 180 to 182 °C
18 | CC(C)c1cccc(C(C)C)c1NC(=O)CSCCCCCCCCCBr | 85 to 86 °C
19 | NS(=O)(=O)c1ccc(-c2noc(-c3cnn4c(C5CC5)cc(-c5ccc(C(F)(F)F)cc5)nc34)n2)cc1 | 313 °C
20 | CCCOc1cc(CCCOc2nn(Cc3ccccc3)cc2CC(=O)O)n(Cc2ccc(Cl)cc2Cl)n1 | 132 to 134 °C
21 | CCC1OCC(O)CO1 (configuration not stated) | 62 to 68.5 °C
22 | CCCOc1cc(NC(=O)C[C@H]2O[C@H](c3cccc(OC)c3OC)c3cc(Cl)ccc3N(CC(C)(C)COC(C)=O)C2=O)cc2cc(C(=O)OC)oc12 | 146 to 147 °C
23 | CN1CCC23c4c5ccc(O)c4OC2C(=NO)CCC3(O)C1C5 (configuration not stated) | 270 to 271 °C
24 | CC(=O)OCc1ccc(CC(C)NCC(O)c2ccccc2)cc1 (configuration not stated) | 78 to 82 °C
25 | O=C1C2=C(SCCS2)C(O)N1c1ccc2c(Cl)ccnc2n1 (configuration not stated) | 300 to 305 °C
26 | O=C(O)C1=Cc2cc(Cl)cc(Cl)c2OC1C(F)(F)F (configuration not stated) | 166 to 168 °C

Second part, the compound after the results:

Row | melting point | SMILES
27 | 130 to 136 °C | CSc1nc(C)n(-c2ccc(N)cc2)n1
28 | 62 to 64 °C | CC(CO)N1CCN(c2ccccn2)CC1 (configuration not stated)
29 | 177 to 178 °C | CN(NC(=O)c1c(Cl)cccc1Cl)S(=O)(=O)c1ccccc1
30 | 164 to 166 °C | O=C(Cc1csc(-c2c(O)cccc2O)n1)NC1C(=O)N2C(C(=O)OC(c3ccccc3)c3ccccc3)=CCSC12 (configuration not stated)
31 | 73 to 75 °C | CCOC(=O)c1csc(-c2cccnc2)n1
32 | 229 °C | COc1cc(C(=O)c2ncc3c(OC)cccn23)ccc1N
33 | 152 to 154 °C | CC(COc1ccc(O)c(C(N)=O)c1)NCC(O)c1ccccc1 (configuration not stated)
34 | 108 to 112 °C | CCN(CC)CCN1CCN(Cc2ccc(O)cc2)C(c2ccccc2)C1 (configuration not stated)
35 | 147 to 150 °C | COc1cc(Cl)c(C(=O)c2ccc([N+](=O)[O-])cc2)c(Cl)c1
36 | 95 to 97 °C | OC(COc1ccc2nncn2n1)CN1CCN(C(c2ccccc2)c2ccccc2)CC1 (configuration not stated)
37 | 143 to 144 °C | c1ccc2nc(COc3cccc4[nH]ccc34)ccc2c1
38 | 94.5 to 95.5 °C | CC(=O)SC1CN(C(=O)OCc2ccccc2)C1
39 | 228 °C | Oc1ccccc1-c1nnn[nH]1
40 | 159 to 163 °C | CCCCN=C(O)c1c(Cl)c(Cl)c(Sc2ccccc2)c(Cl)c1C(=O)O
41 | 202 to 205 °C | O=C1OC(=O)c2c1cccc2N1C(=O)CCC1=O
42 | 122 to 123 °C | CC(=O)N1CC2OC(C3OCCO3)(C1)c1ccccc12 (configuration not stated)
43 | 80 to 80.5 °C | COc1ccc(C#N)c(C)n1
44 | 121 to 123 °C | CC(C)Cc1ccc(C(C)C(=O)Oc2ccc(C(N)=S)cc2)cc1 (configuration not stated)
45 | 53 to 55 °C | CC(C)(C)OC(=O)NN(Cc1ccc(Cl)cc1)C(=O)OCC1c2ccccc2-c2ccccc21
46 | 102 °C | O=C(c1ccccc1)N1CC(=O)N(CCc2ccccc2)C(=O)C1
47 | 164 to 165 °C | Cn1cc(Sc2ccccc2)c(=O)c(-c2ccccc2)c1
48 | 206 to 208 °C | Cc1ccc2c(c1)-c1ncnn1CC(=O)N2
49 | 40 to 41 °C | N#CC(NCCc1cccs1)c1ccccc1Cl (configuration not stated)
50 | 186 to 187 °C | C=CCc1ccc(CCNC(=O)c2cc(Cl)ccc2OC)cc1S(N)(=O)=O
51 | 89 °C | CC(C)(C)C1=C(O)C(=O)c2ccccc2C1=O
52 | 156 to 157 °C | CSc1c(O[C@@H]2CCC[C@H](N3C(=O)c4ccccc4C3=O)C2)ccc2[nH]ncc12 (relative stereo)
